Measurements taken from US10786521B2, “Methods and compositions for treatment of COPD diseases” (Shanghai KE Pharmaceutical Co., LTD, priority 2014, dated 2020).
“Also recorded” adds a separate entry of the source. Blank lines part the entries; values can stand above or below the compound they belong to.

Key:
[1] = system: airway smooth muscle (bronchial rings); test: Relaxation of evoked isometric force of bronchial rings (wire myograph); format: cell-based, mice; conditions: for relaxation of MCh-evoked force at final concentration of 500 μM: 500 μM final, bronchi ring isometric assay; for IC50: MCh-evoked force, dose dependent; for relaxation of evoked force of airway smooth muscle / bronchial rings: in vitro, concentration not given
Description: Briefly, the entire respiratory tree was rapidly removed and immersed in Krebs-Henseleit buffer (118.1 mM NaCl, 4.7 mM KCl, 1.2 mM MgSO4, 2.5 mM CaCl2, 1.0 mM NaH2PO4, 25 mM NaHCO3 and 11.1 mM glucose, pH 7.4). Bronchial rings, 2 mm in length, were isolated from pulmonary bronchi using a dissection microscope. Then the bronchial segments were mounted in a small-vessel wire myograph chamber (Danish Myo Technology, Aarhus, Denmark) by threading on two steel wires (40 μm in diameter) secured to two supports. One support was attached to a force transducer for measurements of isometric force development, and the other was attached to a micrometer controlling ring circumference. The preparation was kept in the chamber, immersed in 5 ml of Krebs-Henseleit solution, bubbled with 5% CO2 and 95% O2 and maintained at 37° C. The initial isometric tension of bronchial ring was set to 0 mN prior to equilibration for 20 min. The bronchial ring was then stretched in order to keep the force at 5 mN followed by an additional equilibration for 20 min. The isometric forces produced by bronchial ring was recorded with a data acquisition and analysis program (Danish Myo Technology, Aarhus, Denmark).
The robust relaxation effect and low risk of toxicity of KE on airway smooth muscle indicates its promising prospects for development. To identify the active ingredients of KE, the KE was divided into three parts including EtOAc phase, n-BuOH phase and water phase using EtOAc and n-BuOH sequential extraction. Upon the airway smooth muscle rings reached a relative steady contraction state evoked by MCh, accumulated volume of these three phases was added to assess the relaxation capacity. […] On the other hand, 1 μL of EtOAc phase just relaxed the rings to 90%.
Their dose-responsive effect on relaxation of airway smooth muscle was measured. When the force evoked by acetylcholine reached a relatively steady state, kudinosides were added to the bath in cumulative concentrations (0.1 μM, 0.3 μM, 1 μM, 3 μM, 10 μM, 30 μM). […] When the concentration of kudinoside D increased to 10 μM, about 50% of the force was relaxed. Strikingly, upon treatment with 30 μM of kudinoside D, more than 80% of the force was relaxed (FIG. 5B). Similarly, 30 μM of kudinoside A also led to 80% inhibition of evoked force. Note that the relaxation effect of kudinosides was completely reversible, because the relaxed muscles restored response to MCh after washing off.

human asthma (severe) = test: Kudinoside A inhalation (atomization device) in two volunteers with severe asthma syndromes; format: in vivo; conditions: volunteer; for time to release of dyspnea: kudinoside A 20 mM inhaled for 15 seconds, albuterol as control
Description: In order to test the effect of single substance in KE extract on asthma therapy, two volunteers with severe asthma syndromes were treated with kudinoside A (20 mM) with an atomization device.

[2] = system: asthmatic airway constriction in acute asthma mouse model; test: Airway resistance (Rrs, FlexiVent) in OVA-induced, methacholine-challenged asthma mice; format: in vivo, C57BL/6 mice; conditions: for inhibition of airway constriction in vivo: mouse
Description: Asthma mice were established as reported previously. Briefly, six to eight-week-old female C57BL/6 mice were carried out by intraperitoneal injection of 100 μg ovalbumin and 4 mg Imject Alum (ThermoFisher Scientific) in total volume of 0.2 mL on days 0 and 14. These mice were then challenged with 1.5%-2% aerosolized ovalbumin for 1 h on days 24, 25 and 26. The efficacy of drugs was evaluated by measuring airway resistance in these mice 24 h after the last challenge.
(§1) The airway resistance was measured through an invasive method as described in previous reports. In brief, the mice were anesthetized with 240 mg/kg Avertin and the trachea was cannulated with an 18-gauge metal needle. Mechanical ventilation (FlexiVent; SCIREQ Inc., Montreal, Canada) was applied at a frequency of 150 breaths per minute, a tidal volume of 10 ml/kg, and positive end-expiratory pressure of 2.5 cm H2O. Prior to methacholine challenge, deep inflation was applied followed by administration of aerosolized PBS to obtain stabilization of airway resistance (Rrs, cmH2O·s/mL). The Rrs after PBS was considered to be the baseline. Then mice were challenged with sequential concentrations of methacholine with a dose of 2.0, 4.0, 8.0, 16, 32 and 64 mg/mL by an ultrasonic nebulizer until reaching bronchoconstrictive phase that was four to five folds greater than baseline. Three minutes after the last dose of methacholine inhalation, the reagents were delivered by the same ultrasonic nebulizer. The Rrs measurements were performed every 30 s throughout the experiments. The negative control for these studies was PBS, because all the solvents for reagents used here were PBS. As a positive control, albuterol (3 μg; Sigma), the most widely used β-agonist as an effective bronchodilator for asthma therapy, was used.
as §1, with “Acute asthma model mice were established as reported previously. Briefly, six to eight-week-old female C57BL/6 mice were carried out by intraperitoneal injection of 100 μg ovalbumin and 4 mg Imject Alum (ThermoFisher Scientific) in total volume of 0.2 mL on days 0 and 14. These mice were then challenged with 1.5%-2% aerosolized ovalbumin for 1 h on days 24, 25 and 26. The efficacy of drugs by measuring airway resistance in these mice 24 h was evaluated after the last challenge. The airway” for “The airway”

L-type calcium channel = target: T1, L-type calcium channel (Mus musculus, UniProt Q01815); test: Whole-cell patch clamp recording of VDCC currents in primary airway smooth muscle cells; format: cell-based; conditions: 50 μM; room temperature; pulses −60 to +50 mV from −80 mV
T1 construct: endogenous in cells; host or cells: primary airway smooth muscle cells
T1 sequence (Q01815 whole entry): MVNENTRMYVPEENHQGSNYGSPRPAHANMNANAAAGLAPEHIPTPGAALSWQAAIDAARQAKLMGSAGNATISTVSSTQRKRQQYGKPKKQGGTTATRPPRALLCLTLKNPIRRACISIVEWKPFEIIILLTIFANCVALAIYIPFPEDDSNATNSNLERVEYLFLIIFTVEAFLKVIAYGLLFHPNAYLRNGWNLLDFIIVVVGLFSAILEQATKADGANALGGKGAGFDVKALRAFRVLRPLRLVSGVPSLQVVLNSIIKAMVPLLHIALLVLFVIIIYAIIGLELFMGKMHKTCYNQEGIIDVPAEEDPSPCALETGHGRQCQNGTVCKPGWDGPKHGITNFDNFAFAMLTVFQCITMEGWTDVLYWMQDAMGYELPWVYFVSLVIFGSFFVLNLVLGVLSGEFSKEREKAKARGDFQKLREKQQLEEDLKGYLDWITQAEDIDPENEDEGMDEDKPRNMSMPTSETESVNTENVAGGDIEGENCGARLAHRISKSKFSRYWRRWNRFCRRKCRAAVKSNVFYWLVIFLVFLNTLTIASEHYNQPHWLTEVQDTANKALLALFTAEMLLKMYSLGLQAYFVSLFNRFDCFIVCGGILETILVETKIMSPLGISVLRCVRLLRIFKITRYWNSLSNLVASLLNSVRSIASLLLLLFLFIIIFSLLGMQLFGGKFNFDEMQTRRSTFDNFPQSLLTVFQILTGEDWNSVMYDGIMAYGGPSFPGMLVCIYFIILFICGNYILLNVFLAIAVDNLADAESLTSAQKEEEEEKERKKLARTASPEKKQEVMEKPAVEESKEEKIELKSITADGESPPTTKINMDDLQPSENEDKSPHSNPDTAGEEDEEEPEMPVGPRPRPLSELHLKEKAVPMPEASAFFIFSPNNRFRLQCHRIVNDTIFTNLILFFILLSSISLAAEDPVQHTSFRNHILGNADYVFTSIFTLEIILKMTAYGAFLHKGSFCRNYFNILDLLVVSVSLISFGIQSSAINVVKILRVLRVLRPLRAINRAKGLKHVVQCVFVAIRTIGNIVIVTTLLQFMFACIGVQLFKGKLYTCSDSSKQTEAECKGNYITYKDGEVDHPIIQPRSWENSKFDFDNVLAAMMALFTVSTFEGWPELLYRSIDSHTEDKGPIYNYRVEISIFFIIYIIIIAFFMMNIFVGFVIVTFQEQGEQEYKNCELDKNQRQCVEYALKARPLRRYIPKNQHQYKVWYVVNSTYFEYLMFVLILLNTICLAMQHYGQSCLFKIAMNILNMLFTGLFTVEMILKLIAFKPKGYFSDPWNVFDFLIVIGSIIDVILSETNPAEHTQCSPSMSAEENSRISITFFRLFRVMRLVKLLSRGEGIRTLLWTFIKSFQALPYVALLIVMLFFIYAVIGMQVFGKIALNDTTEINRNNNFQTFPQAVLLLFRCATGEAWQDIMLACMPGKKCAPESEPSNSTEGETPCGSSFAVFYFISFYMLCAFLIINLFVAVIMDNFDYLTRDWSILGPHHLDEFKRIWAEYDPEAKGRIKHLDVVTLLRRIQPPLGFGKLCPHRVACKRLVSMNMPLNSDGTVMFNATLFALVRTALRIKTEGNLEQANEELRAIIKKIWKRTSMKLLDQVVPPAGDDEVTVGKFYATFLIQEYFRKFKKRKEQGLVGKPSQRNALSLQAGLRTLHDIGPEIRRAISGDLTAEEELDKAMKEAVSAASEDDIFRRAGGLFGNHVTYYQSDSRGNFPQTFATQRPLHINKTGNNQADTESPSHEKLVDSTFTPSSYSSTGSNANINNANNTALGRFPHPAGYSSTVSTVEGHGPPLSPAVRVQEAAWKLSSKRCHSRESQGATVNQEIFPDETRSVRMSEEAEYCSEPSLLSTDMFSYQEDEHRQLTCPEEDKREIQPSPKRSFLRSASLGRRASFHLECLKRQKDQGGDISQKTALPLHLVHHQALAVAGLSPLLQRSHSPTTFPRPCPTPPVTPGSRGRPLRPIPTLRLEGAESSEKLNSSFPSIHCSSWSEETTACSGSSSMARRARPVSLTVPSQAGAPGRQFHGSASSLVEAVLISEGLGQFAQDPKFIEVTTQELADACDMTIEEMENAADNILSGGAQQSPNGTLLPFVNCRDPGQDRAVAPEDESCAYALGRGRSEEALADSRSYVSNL
T1 sequence (O08532 25-1103 partner): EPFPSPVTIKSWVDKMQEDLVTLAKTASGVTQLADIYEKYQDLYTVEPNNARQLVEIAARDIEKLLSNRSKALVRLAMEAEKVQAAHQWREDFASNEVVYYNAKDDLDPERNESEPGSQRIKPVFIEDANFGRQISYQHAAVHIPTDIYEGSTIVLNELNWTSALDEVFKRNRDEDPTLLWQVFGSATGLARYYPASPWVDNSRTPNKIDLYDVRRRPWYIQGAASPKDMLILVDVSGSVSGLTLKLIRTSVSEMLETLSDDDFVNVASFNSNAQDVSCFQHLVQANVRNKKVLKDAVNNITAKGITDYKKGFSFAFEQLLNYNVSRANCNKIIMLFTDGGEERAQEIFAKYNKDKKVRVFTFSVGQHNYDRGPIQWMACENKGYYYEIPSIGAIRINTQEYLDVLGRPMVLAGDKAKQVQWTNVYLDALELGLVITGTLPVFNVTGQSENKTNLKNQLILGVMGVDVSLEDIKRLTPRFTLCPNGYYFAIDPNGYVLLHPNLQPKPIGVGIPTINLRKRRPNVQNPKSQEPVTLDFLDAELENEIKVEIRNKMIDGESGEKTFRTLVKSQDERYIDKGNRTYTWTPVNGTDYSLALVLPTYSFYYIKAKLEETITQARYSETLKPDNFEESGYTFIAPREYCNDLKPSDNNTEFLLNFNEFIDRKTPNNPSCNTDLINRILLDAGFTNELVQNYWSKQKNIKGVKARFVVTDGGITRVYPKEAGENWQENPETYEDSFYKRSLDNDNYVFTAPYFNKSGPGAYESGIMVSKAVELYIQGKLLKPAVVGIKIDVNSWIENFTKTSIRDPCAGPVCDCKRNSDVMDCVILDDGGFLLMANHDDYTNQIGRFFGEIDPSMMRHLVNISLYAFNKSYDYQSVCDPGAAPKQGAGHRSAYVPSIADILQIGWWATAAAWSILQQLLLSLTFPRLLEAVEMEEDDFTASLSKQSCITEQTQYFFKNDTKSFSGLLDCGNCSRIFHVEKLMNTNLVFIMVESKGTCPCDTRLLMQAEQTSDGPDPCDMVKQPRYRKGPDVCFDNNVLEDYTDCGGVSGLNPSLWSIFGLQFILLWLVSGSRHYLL
T1 sequence (P54285 whole entry partner): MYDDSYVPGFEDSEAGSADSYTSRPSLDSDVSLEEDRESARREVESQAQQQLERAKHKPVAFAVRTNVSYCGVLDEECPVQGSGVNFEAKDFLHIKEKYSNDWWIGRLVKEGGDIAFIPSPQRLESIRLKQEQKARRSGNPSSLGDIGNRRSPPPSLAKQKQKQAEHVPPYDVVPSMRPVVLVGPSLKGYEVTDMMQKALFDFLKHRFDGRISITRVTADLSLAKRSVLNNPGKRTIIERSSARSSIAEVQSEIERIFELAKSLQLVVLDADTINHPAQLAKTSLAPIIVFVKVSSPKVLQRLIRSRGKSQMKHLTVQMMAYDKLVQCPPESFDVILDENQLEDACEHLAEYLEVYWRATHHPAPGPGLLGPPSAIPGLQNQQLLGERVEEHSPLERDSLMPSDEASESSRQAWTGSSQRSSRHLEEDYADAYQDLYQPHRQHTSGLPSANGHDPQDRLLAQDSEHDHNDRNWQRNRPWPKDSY
Description: So to identify the target of certain kudinosides, patch-clamp studies were used to examine the modulation of L-type calcium channel currents after Kudinosides treatment. In patch-clamp studies, whole-cell patch clamp recording of VDCC currents were performed at room temperature, in response to voltage pulses (−60 to +50 mV from a holding potential of −80 mV, 200 ms).

IC50 ([1]; Mus musculus): 84.3 µM
Compound: CC1(C)[C@@H](O)CC[C@]2(C)[C@H]3C(=O)C=C4[C@@H]5C[C@@](C)(C(=O)O)CC[C@]5(C)CC[C@@]4(C)[C@]3(C)CC[C@@H]12 [Glycyrrhetinic acid, reference compound]
relaxation of MCh-evoked force at final concentration of 500 μM [1]: about 50%

Compound: COC(=O)[C@@]1(C)CC[C@]2(C(=O)O)CC[C@]3(C)C(=CC[C@@H]4[C@@]5(C)C[C@H](O)[C@H](O)[C@@](C)(CO)[C@@H]5CC[C@]43C)[C@@H]2C1 [Phytolaccagenin, reference compound]
relaxation of MCh-evoked force at final concentration of 500 μM [1]: about 50%

Compound: C[C@@H]1O[C@@H](O[C@H]2[C@H](O[C@H]3[C@H](O[C@H]4CC[C@]5(C)[C@H]6CC=C7[C@@H]8CC(C)(C)CC[C@]8(C(=O)O)CC[C@@]7(C)[C@]6(C)CC[C@H]5C4(C)C)OC[C@H](O)[C@@H]3O)O[C@H](CO)[C@@H](O)[C@@H]2O)[C@H](O)[C@H](O)[C@H]1O [Raddeanin A, reference compound]
relaxation of MCh-evoked force at final concentration of 500 μM [1]: about 50%

IC50 [1]: > 150 µM
Compound: C[C@@H]1O[C@@H](O[C@@H]2[C@H](O)[C@@H](O)[C@H](O[C@H]3CC[C@@]4(C)C(CC[C@]5(C)C4C=C[C@]46OC[C@@]7(CCC(C)(C)CC74)[C@@H](O)C[C@]65C)C3(C)C)O[C@@H]2CO[C@@H]2O[C@H](CO)[C@@H](O)[C@H](O)[C@H]2O)[C@H](O)[C@H](O)[C@H]1O (stereo partly drawn) [Saikosaponin C, reference compound]
relaxation of MCh-evoked force at final concentration of 500 μM [1]: about 50%

Compound: C[C@@H]1O[C@@H](O[C@H]2[C@H](O[C@H]3[C@H](O[C@H]4CC[C@@]5(C)[C@@H](CC[C@]6(C)[C@@H]5CC=C5[C@@H]7CC(C)(C)C[C@@H](O)[C@]7(C)CC[C@]56C)[C@@]4(C)CO)O[C@H](C(=O)O)[C@@H](O)[C@@H]3O)O[C@H](CO)[C@H](O)[C@@H]2O)[C@H](O)[C@H](O)[C@H]1O [Soyasaponin Bb, reference compound]
relaxation of MCh-evoked force at final concentration of 500 μM [1]: about 50%

Compound: CC(C)(C)NCC(O)c1ccc(O)c(CO)c1 (stereo not drawn) [albuterol, reference compound]
duration of release of dyspnea (human asthma (severe)): could not be maintained overnight | time to release of dyspnea (human asthma (severe)): ≤ 3 min | reduction of airway resistance at 1 minute after inhalation, 3 μg (positive control) ([2]; 3 μg inhaled, 1 minute, printed as 'led to a reduction of'): 55.59±13.07% | effect on asthmatic airway resistance ([2]; n-BuOH phase 30 μg, albuterol 3 μg, inhaled after MCh challenge): significant reduction of airway resistance

decrease of current generated by L-type calcium channel compared to vehicle (L-type calcium channel): about 60%
Compound: Kudinoside A
force relaxed / inhibition of evoked force at 30 μM ([1]; force evoked by acetylcholine, cumulative concentrations, 30 μM): 80% | relaxation of evoked force of airway smooth muscle / bronchial rings [1]: significantly relaxed bronchial rings in a dose-dependent manner | duration of release of dyspnea (human asthma (severe)): maintained overnight | PEF value after inhalation (human asthma (severe); 20 mM, 15 seconds inhalation, increased from 100): 320 | time to release of dyspnea (human asthma (severe)): 5 min

Compound: Kudinoside C
relaxation of evoked force of airway smooth muscle / bronchial rings [1]: strong relaxation effect on airway smooth muscles | inhibition of airway constriction in vivo [2]: significant inhibition of airway constriction

Compound: Kudinoside H
relaxation of evoked force of airway smooth muscle / bronchial rings [1]: fails to show effective bronchial ring relaxation; also recorded: little effect on relaxation in vitro | inhibition of airway constriction in vivo [2]: little inhibition activity of airway constriction in vivo
